Experimental data reported in article PMC8235719, “New RAD51 Inhibitors to Target Homologous Recombination in Human Cells” (Genes, 2021).
Like-named read-outs stand apart in the source and are kept apart here.

Assays:
Type in all cases: cell-based, human
MDA-MB-231 cells [1] = experiment: Cell viability assay (Guava ViaCount flow cytometry), MDA-MB-231; details: for IC50: read-out: IC50 of cell viability
Procedure: (§1) For all cell viability experiments, except experiments involving MMS treatment, cells were seeded into the media containing indicated concentrations of tested compounds or corresponding amounts of DMSO in controls. The concentration of DMSO in media was 0.1%. MDA-MB-231 cells were seeded into 24-well plates at 3.5 × 10^4 cells/well for cells for a 4-day treatment or at 5000 cells/well for a 10-day treatment. MCF 10A cells were seeded into 24-well plates at 1.5 × 10^4 cells/well for a 4-day treatment or at 500 cells/well for a 10-day treatment. In the case of 10-day treatments, the media with compounds were renewed twice on the 4th and the 7th days of treatments. After completion of the treatments, cells were harvested, and their viability was determined by flow cytometry with Guava ViaCount reagent (Luminex; Austin, TX USA). Data were analyzed using the Guava ViaCount software (Millipore; Burlington, VT, USA). The IC50 values were calculated using the GraphPad Prism 5 software (San Diego, CA, USA).

MCF 10A cells = experiment: Cell viability assay (Guava ViaCount flow cytometry), MCF 10A
Procedure: as §1

MDA-MB-231 cells [2] = experiment: Cell viability of MDA-MB-231 after 1 h MMS treatment; details: MDA-MB-231, 100 µM MMS 1 h
Procedure: For experiments in which MDA-MB-231 cells were treated with MMS, cells were seeded in 24-well plates at 3.5 × 10^4 cells/well. The next day, cells were treated with 100 µM MMS (Sigma, St. Louis, MO, USA) for 1 h in the presence of increasing concentrations of olaparib and 2 µM B02-iso where indicated. Then, cells were washed twice with PBS, which was followed by incubation with olaparib at indicated concentrations and 2 µM B02-iso where indicated for 4 days. After completion of the treatments, cells were harvested, and their viability was determined by flow cytometry using Guava ViaCount reagent (Luminex; Austin, TX, USA). Data were analyzed using the Guava ViaCount software (Millipore; Burlington, VT, USA).

IC50 (MDA-MB-231 cells [1]; Homo sapiens, MDA-MB-231, 96 h, MDA-MB-231, 4-day treatment): 4.1 µM | IC50 (MDA-MB-231 cells [1]; Homo sapiens, MDA-MB-231, 240 h, MDA-MB-231, 10-day treatment, compound alone): 2.6 µM
Compound: O=c1nc(/C=C/c2cccnc2)n(Cc2ccccc2)c2ccccc12 [B02-iso]
inhibition at 2 µM (MDA-MB-231 cells [1]; Homo sapiens, 96 h, MDA-MB-231, 2 µM, 4-day treatment, read-out: Growth inhibition): < 5% | Effect on cell viability, compound alone (MDA-MB-231 cells [1]; MDA-MB-231, 1.8 µM, 10-day treatment): does not impair cell viability | Fold increase in efficiency of olaparib killing (MDA-MB-231 cells [1]; MDA-MB-231, 10-day treatment, 1.8 µM B02-iso): 2.4 fold | Times lower sensitivity of MCF 10A compared with MDA-MB-231 (MCF 10A cells; 4-day treatment, ratio of IC50): approximately 3 | IC50 (MCF 10A cells; Homo sapiens, 96 h, MCF 10A, 4-day treatment): 11.9 µM | Effect on cell viability in combination with olaparib (MCF 10A cells; MCF 10A, 1.8 µM B02-iso, same range of olaparib concentrations, 10-day treatment): did not decrease cell viability | Sensitization of cells to B02-iso by MMS in the absence of olaparib (MDA-MB-231 cells [2]; 4-day treatment): did not sensitize | Effect on cell killing by MMS plus olaparib (MDA-MB-231 cells [2]; olaparib, 2 µM B02-iso, 4 days): further significantly increased
